Laboratory results taken from patent US10093713B2, “GIP-GLP-1 dual agonist compounds and methods” (priority 2013, dated 2018).
*1 amine or outer side, *2 acyl side, *3 side chain or, on linkers, in order; H or OH if unused. Where a SMILES comes first, the peptide text is derived from it. Side-chain parts run from the residue outwards. [ ]: non-standard residue; d: D form. The star is where a group is joined. C20 diacid = O=C(O)CCCCCCCCCCCCCCCCCCC(=O)*; γGlu = O=C(O)[C@H](CCC(=O)[*:2])N[*:1]; AEEA = NCCOCCOCC(=O)O; Aib = CC(C)(N)C(=O)O

Assays:
human GLP-1 R = molecular target: T1, human GLP-1 R (Homo sapiens, UniProt P43220); assay: Human GLP-1 receptor (GLP-1 R) activity assay, cAMP induction (AlphaScreen) in HEK293 cells; type: cell-based; details: Table 3; most comprehensive data; read-out: hGLP-1-R cAMP EC50 average value
T1 construct: expressed in transfected cells
How it was run: (§1)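 Stable HEK293 clones expressing human GIP R or GLP-1 R, seeded 1 day before; cells washed in Tyrode's buffer (10 mM HEPES, pH 7.4), stimulated, then lysed. cAMP measured by AlphaScreen bead competition (1 h, room temperature, dark). EC50 = concentration giving half-maximal cAMP elevation, from curves of absolute cAMP (nM) vs log concentration.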

human GIP R = molecular target: T2, human GIP R (Homo sapiens, UniProt P48546); assay: Human GIP receptor (GIP R) activity assay, cAMP induction (AlphaScreen) in HEK293 cells; type: cell-based; details: Table 3; most comprehensive data; read-out: hGIP-R cAMP EC50 average value
T2 construct: expressed in transfected cells
T2 sequence (P48546 22-466): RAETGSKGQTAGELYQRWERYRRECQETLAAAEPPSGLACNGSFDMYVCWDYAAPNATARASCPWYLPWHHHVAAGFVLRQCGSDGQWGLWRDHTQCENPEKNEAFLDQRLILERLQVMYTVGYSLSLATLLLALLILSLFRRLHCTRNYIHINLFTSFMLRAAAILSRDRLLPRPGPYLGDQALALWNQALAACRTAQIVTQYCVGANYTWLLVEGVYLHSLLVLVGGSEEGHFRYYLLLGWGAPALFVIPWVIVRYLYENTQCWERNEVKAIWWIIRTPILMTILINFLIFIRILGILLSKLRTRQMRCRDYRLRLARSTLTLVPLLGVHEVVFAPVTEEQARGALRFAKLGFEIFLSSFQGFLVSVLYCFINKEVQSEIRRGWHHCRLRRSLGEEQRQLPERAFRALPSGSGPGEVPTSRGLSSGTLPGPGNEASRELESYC
How it was run: as §1

T1 sequence (P43220 24-463): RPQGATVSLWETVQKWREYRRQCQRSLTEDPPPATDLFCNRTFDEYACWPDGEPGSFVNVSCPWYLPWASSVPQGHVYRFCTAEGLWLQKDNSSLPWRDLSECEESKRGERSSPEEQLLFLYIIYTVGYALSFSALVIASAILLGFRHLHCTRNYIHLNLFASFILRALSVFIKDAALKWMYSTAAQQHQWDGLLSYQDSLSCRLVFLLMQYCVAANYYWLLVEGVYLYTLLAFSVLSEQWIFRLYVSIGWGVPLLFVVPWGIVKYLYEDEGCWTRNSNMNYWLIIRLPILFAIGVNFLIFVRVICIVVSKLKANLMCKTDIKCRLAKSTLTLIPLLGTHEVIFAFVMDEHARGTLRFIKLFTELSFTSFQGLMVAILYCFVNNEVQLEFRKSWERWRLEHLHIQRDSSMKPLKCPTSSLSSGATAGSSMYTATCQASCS

SMILES	EC50 (human GLP-1 R)	EC50 (human GIP R)
CC[C@H](C)[C@H](NC(=O)[C@H](CO)NC(=O)[C@H](Cc1ccc(O)cc1)NC(=O)[C@H](CC(=O)O)NC(=O)[C@H](CO)NC(=O)[C@@H](NC(=O)[C@H](Cc1ccccc1)NC(=O)[C@@H](NC(=O)CNC(=O)[C@H](CCC(=O)O)NC(=O)C(C)(C)NC(=O)[C@@H](N)Cc1ccc(O)cc1)[C@@H](C)O)[C@@H](C)O)C(=O)N[C@@H](C)C(=O)N[C@@H](CC(C)C)C(=O)N[C@@H](CC(=O)O)C(=O)N[C@@H](CCC(=O)O)C(=O)N[C@@H](CCCCNC(=O)COCCOCCNC(=O)COCCOCCNC(=O)CC[C@H](NC(=O)CCCCCCCCCCCCCCCCCCC(=O)O)C(=O)O)C(=O)N[C@@H](C)C(=O)N[C@@H](CCC(N)=O)C(=O)N[C@@H](CCCNC(=N)N)C(=O)N[C@@H](C)C(=O)N[C@@H](Cc1ccccc1)C(=O)N[C@H](C(=O)N[C@@H](CCC(=O)O)C(=O)N[C@@H](Cc1c[nH]c2ccccc12)C(=O)N[C@@H](CC(C)C)C(=O)N[C@@H](CC(C)C)C(=O)N[C@@H](C)C(=O)N[C@@H](C)C(=O)NCC(=O)N1CCC[C@H]1C(=O)N[C@@H](CO)C(=O)N[C@@H](CO)C(=O)NCC(=O)N[C@@H](C)C(=O)N1CCC[C@H]1C(=O)N1CCC[C@H]1C(=O)N1CCC[C@H]1C(=O)N[C@@H](CO)C(N)=O)C(C)C [Compound 44] (H-Y[Aib]EGTFTSDYSIALDEK([AEEA-AEEA-γGlu-C20 diacid])AQRAFVEWLLAAGPSSGAPPPS-NH2)	15 pM	7 pM
CC[C@H](C)[C@H](NC(=O)[C@H](CO)NC(=O)[C@H](Cc1ccc(O)cc1)NC(=O)[C@H](CC(=O)O)NC(=O)[C@H](CO)NC(=O)[C@@H](NC(=O)[C@H](Cc1ccccc1)NC(=O)[C@@H](NC(=O)CNC(=O)[C@H](CCC(=O)O)NC(=O)C(C)(C)NC(=O)[C@@H](N)Cc1ccc(O)cc1)[C@@H](C)O)[C@@H](C)O)C(=O)N[C@@H](C)C(=O)N[C@@H](CC(C)C)C(=O)N[C@@H](CC(=O)O)C(=O)N[C@@H](CCCCN)C(=O)N[C@@H](CCCCNC(=O)COCCOCCNC(=O)COCCOCCNC(=O)CC[C@H](NC(=O)CCCCCCCCCCCCCCCCCCC(=O)O)C(=O)O)C(=O)N[C@@H](C)C(=O)N[C@@H](CCC(N)=O)C(=O)N[C@@H](CCCCN)C(=O)N[C@@H](C)C(=O)N[C@@H](Cc1ccccc1)C(=O)N[C@H](C(=O)N[C@@H](CCC(=O)O)C(=O)N[C@@H](Cc1c[nH]c2ccccc12)C(=O)N[C@@H](CC(C)C)C(=O)N[C@@H](CC(C)C)C(=O)N[C@@H](C)C(=O)N[C@@H](C)C(=O)NCC(=O)N1CCC[C@H]1C(=O)N[C@@H](CO)C(=O)N[C@@H](CO)C(=O)NCC(=O)N[C@@H](C)C(=O)N1CCC[C@H]1C(=O)N1CCC[C@H]1C(=O)N1CCC[C@H]1C(=O)N[C@@H](CO)C(N)=O)C(C)C [Compound 45] (H-Y[Aib]EGTFTSDYSIALDKK([AEEA-AEEA-γGlu-C20 diacid])AQKAFVEWLLAAGPSSGAPPPS-NH2)	24 pM	5 pM
CC[C@H](C)[C@H](NC(=O)[C@H](CO)NC(=O)[C@H](Cc1ccc(O)cc1)NC(=O)[C@H](CC(=O)O)NC(=O)[C@H](CO)NC(=O)[C@@H](NC(=O)[C@H](Cc1ccccc1)NC(=O)[C@@H](NC(=O)CNC(=O)[C@H](CCC(=O)O)NC(=O)C(C)(C)NC(=O)[C@@H](N)Cc1ccc(O)cc1)[C@@H](C)O)[C@@H](C)O)C(=O)N[C@@H](Cc1ccc(O)cc1)C(=O)N[C@@H](CC(C)C)C(=O)N[C@@H](CC(=O)O)C(=O)N[C@@H](CCCCN)C(=O)N[C@@H](CCCCNC(=O)COCCOCCNC(=O)COCCOCCNC(=O)CC[C@H](NC(=O)CCCCCCCCCCCCCCCCCCC(=O)O)C(=O)O)C(=O)N[C@@H](C)C(=O)N[C@@H](CCC(N)=O)C(=O)N[C@@H](CCCNC(=N)N)C(=O)N[C@@H](CCC(=O)O)C(=O)N[C@@H](Cc1ccccc1)C(=O)N[C@H](C(=O)N[C@@H](CCC(=O)O)C(=O)N[C@@H](Cc1c[nH]c2ccccc12)C(=O)N[C@@H](CC(C)C)C(=O)N[C@@H](CC(C)C)C(=O)N[C@@H](C)C(=O)N[C@@H](CCC(N)=O)C(=O)NCC(=O)N1CCC[C@H]1C(=O)N[C@@H](CO)C(=O)N[C@@H](CO)C(=O)NCC(=O)N[C@@H](C)C(=O)N1CCC[C@H]1C(=O)N1CCC[C@H]1C(=O)N1CCC[C@H]1C(=O)N[C@@H](CO)C(N)=O)C(C)C [Compound 46] (H-Y[Aib]EGTFTSDYSIYLDKK([AEEA-AEEA-γGlu-C20 diacid])AQREFVEWLLAQGPSSGAPPPS-NH2)	10 pM	6 pM
CC[C@H](C)[C@H](NC(=O)[C@H](CO)NC(=O)[C@H](Cc1ccc(O)cc1)NC(=O)[C@H](CC(=O)O)NC(=O)[C@H](CO)NC(=O)[C@@H](NC(=O)[C@H](Cc1ccccc1)NC(=O)[C@@H](NC(=O)CNC(=O)[C@H](CCC(=O)O)NC(=O)C(C)(C)NC(=O)[C@@H](N)Cc1ccc(O)cc1)[C@@H](C)O)[C@@H](C)O)C(=O)N[C@@H](C)C(=O)N[C@@H](CC(C)C)C(=O)N[C@@H](CC(=O)O)C(=O)N[C@@H](CCCCN)C(=O)N[C@@H](CCCCNC(=O)COCCOCCNC(=O)COCCOCCNC(=O)CC[C@H](NC(=O)CCCCCCCCCCCCCCCCCCC(=O)O)C(=O)O)C(=O)N[C@@H](C)C(=O)N[C@@H](CCC(N)=O)C(=O)N[C@@H](CCCNC(=N)N)C(=O)N[C@@H](CCC(=O)O)C(=O)N[C@@H](Cc1ccccc1)C(=O)N[C@H](C(=O)N[C@@H](CCC(=O)O)C(=O)N[C@@H](Cc1c[nH]c2ccccc12)C(=O)N[C@@H](CC(C)C)C(=O)N[C@@H](CC(C)C)C(=O)N[C@@H](C)C(=O)N[C@@H](CCC(N)=O)C(=O)NCC(=O)N1CCC[C@H]1C(=O)N[C@@H](CO)C(=O)N[C@@H](CO)C(=O)NCC(=O)N[C@@H](C)C(=O)N1CCC[C@H]1C(=O)N1CCC[C@H]1C(=O)N1CCC[C@H]1C(=O)N[C@@H](CO)C(N)=O)C(C)C [Compound 47] (H-Y[Aib]EGTFTSDYSIALDKK([AEEA-AEEA-γGlu-C20 diacid])AQREFVEWLLAQGPSSGAPPPS-NH2)	16 pM	5 pM
CC[C@H](C)[C@H](NC(=O)[C@H](CO)NC(=O)[C@H](Cc1ccc(O)cc1)NC(=O)[C@H](CC(=O)O)NC(=O)[C@H](CO)NC(=O)[C@@H](NC(=O)[C@H](Cc1ccccc1)NC(=O)[C@@H](NC(=O)CNC(=O)[C@H](CCC(=O)O)NC(=O)C(C)(C)NC(=O)[C@@H](N)Cc1ccc(O)cc1)[C@@H](C)O)[C@@H](C)O)C(=O)N[C@@H](C)C(=O)N[C@@H](CC(C)C)C(=O)N[C@@H](CC(=O)O)C(=O)N[C@@H](CCCCN)C(=O)N[C@@H](CCCCNC(=O)COCCOCCNC(=O)COCCOCCNC(=O)CC[C@H](NC(=O)CCCCCCCCCCCCCCCCCCC(=O)O)C(=O)O)C(=O)N[C@@H](C)C(=O)N[C@@H](CCC(N)=O)C(=O)N[C@@H](CCCCN)C(=O)N[C@@H](CCC(=O)O)C(=O)N[C@@H](Cc1ccccc1)C(=O)N[C@H](C(=O)N[C@@H](CCC(=O)O)C(=O)N[C@@H](Cc1c[nH]c2ccccc12)C(=O)N[C@@H](CC(C)C)C(=O)N[C@@H](CC(C)C)C(=O)N[C@@H](C)C(=O)N[C@@H](CCC(N)=O)C(=O)NCC(=O)N1CCC[C@H]1C(=O)N[C@@H](CO)C(=O)N[C@@H](CO)C(=O)NCC(=O)N[C@@H](C)C(=O)N1CCC[C@H]1C(=O)N1CCC[C@H]1C(=O)N1CCC[C@H]1C(=O)N[C@@H](CO)C(N)=O)C(C)C [Compound 48] (H-Y[Aib]EGTFTSDYSIALDKK([AEEA-AEEA-γGlu-C20 diacid])AQKEFVEWLLAQGPSSGAPPPS-NH2)	52 pM	6 pM
CC[C@H](C)[C@H](NC(=O)[C@H](CO)NC(=O)[C@H](Cc1ccc(O)cc1)NC(=O)[C@H](CC(=O)O)NC(=O)[C@H](CO)NC(=O)[C@@H](NC(=O)[C@H](Cc1ccccc1)NC(=O)[C@@H](NC(=O)CNC(=O)[C@H](CCC(=O)O)NC(=O)C(C)(C)NC(=O)[C@@H](N)Cc1ccc(O)cc1)[C@@H](C)O)[C@@H](C)O)C(=O)N[C@@H](C)C(=O)N[C@@H](CC(C)C)C(=O)N[C@@H](CC(=O)O)C(=O)N[C@@H](CCCCN)C(=O)N[C@@H](CCCCNC(=O)COCCOCCNC(=O)COCCOCCNC(=O)CC[C@H](NC(=O)CCCCCCCCCCCCCCCCCCC(=O)O)C(=O)O)C(=O)N[C@@H](C)C(=O)N[C@@H](CCC(N)=O)C(=O)N[C@@H](CCCCN)C(=O)N[C@@H](CCC(=O)O)C(=O)N[C@@H](Cc1ccccc1)C(=O)N[C@H](C(=O)N[C@@H](CCC(=O)O)C(=O)N[C@@H](Cc1c[nH]c2ccccc12)C(=O)N[C@@H](CC(C)C)C(=O)N[C@@H](CC(C)C)C(=O)N[C@@H](C)C(=O)N[C@@H](C)C(=O)NCC(=O)N1CCC[C@H]1C(=O)N[C@@H](CO)C(=O)N[C@@H](CO)C(=O)NCC(=O)N[C@@H](C)C(=O)N1CCC[C@H]1C(=O)N1CCC[C@H]1C(=O)N1CCC[C@H]1C(=O)N[C@@H](CO)C(N)=O)C(C)C [Compound 49] (H-Y[Aib]EGTFTSDYSIALDKK([AEEA-AEEA-γGlu-C20 diacid])AQKEFVEWLLAAGPSSGAPPPS-NH2)	53 pM	9 pM
